Test system: Tetranychus urticae
Experiment: Efficacy test against Tetranychus urticae (adult mites on kidney bean plant, spray)
Format: in vivo
Conditions: emulsion diluted to 31 ppm, sprayed; organic phosphorous-resistant adult females; 3 days after spraying
Description: Efficacy Test Against Tetranychus urticae
Seventeen organic phosphorous-resistant adult female Tetranychus urticae mites were inoculated onto the first leaves of a kidney bean plant planted in a No. 3 pot 7 to 10 days after germination. Next, an emulsion was prepared having the formula indicated in the aforementioned Preparation example 2. […] The kidney bean plant was then placed in a temperature-controlled room at a temperature of 25° C. and humidity of 65%. The adult insect mortality rates were investigated 3 days after spraying. The test was repeated twice.

COC(C)COc1cc(C(F)(F)F)ccc1OC1CC2CCCC(C1)N2Oc1ccc(C(F)(F)F)cn1 (stereo not shown) [H-81]
insect mortality rate: ≥ 80%
